Measurements reported in ChEMBL document CHEMBL5465560, “Selectivity Literature for EUbOPEN Chemogenomic Library” (2024).

What was measured:
[1] = biological target: Serine/threonine-protein kinase pim-2 (Homo sapiens, UniProt Q9P1W9); experiment: Selectivity interaction (KinomeScan (DiscoverX)) EUB0000666a PIM2; conditions: at 10 µM
[2] = biological target: Dual specificity mitogen-activated protein kinase kinase 1 (Homo sapiens, UniProt Q02750); experiment: Selectivity interaction (KinomeScan (DiscoverX)) EUB0000607a MAP2K1; conditions: at 10 µM
Sequence of Dual specificity mitogen-activated protein kinase kinase 1 (Q02750 whole entry): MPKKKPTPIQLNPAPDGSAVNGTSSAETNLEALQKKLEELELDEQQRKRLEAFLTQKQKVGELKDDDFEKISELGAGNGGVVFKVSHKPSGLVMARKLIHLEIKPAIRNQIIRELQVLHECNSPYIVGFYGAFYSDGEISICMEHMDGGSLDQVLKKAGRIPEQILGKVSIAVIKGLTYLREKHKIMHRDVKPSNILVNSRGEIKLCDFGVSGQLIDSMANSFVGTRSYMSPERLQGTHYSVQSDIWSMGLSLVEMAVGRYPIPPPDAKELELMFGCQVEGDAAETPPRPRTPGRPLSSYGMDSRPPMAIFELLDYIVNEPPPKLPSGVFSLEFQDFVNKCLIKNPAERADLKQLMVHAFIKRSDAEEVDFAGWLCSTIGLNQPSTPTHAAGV

[3] = biological target: T1, Serine/threonine-protein kinase LATS1 (Homo sapiens) (UniProt O95835); experiment: Selectivity interaction (ActivX KiNativ screen (kinase selectivity in THP-1 cell lysates)) EUB0000639a LATS1; format: subcellular; conditions: lysate, at 0.01 µM
T1 sequence (whole entry): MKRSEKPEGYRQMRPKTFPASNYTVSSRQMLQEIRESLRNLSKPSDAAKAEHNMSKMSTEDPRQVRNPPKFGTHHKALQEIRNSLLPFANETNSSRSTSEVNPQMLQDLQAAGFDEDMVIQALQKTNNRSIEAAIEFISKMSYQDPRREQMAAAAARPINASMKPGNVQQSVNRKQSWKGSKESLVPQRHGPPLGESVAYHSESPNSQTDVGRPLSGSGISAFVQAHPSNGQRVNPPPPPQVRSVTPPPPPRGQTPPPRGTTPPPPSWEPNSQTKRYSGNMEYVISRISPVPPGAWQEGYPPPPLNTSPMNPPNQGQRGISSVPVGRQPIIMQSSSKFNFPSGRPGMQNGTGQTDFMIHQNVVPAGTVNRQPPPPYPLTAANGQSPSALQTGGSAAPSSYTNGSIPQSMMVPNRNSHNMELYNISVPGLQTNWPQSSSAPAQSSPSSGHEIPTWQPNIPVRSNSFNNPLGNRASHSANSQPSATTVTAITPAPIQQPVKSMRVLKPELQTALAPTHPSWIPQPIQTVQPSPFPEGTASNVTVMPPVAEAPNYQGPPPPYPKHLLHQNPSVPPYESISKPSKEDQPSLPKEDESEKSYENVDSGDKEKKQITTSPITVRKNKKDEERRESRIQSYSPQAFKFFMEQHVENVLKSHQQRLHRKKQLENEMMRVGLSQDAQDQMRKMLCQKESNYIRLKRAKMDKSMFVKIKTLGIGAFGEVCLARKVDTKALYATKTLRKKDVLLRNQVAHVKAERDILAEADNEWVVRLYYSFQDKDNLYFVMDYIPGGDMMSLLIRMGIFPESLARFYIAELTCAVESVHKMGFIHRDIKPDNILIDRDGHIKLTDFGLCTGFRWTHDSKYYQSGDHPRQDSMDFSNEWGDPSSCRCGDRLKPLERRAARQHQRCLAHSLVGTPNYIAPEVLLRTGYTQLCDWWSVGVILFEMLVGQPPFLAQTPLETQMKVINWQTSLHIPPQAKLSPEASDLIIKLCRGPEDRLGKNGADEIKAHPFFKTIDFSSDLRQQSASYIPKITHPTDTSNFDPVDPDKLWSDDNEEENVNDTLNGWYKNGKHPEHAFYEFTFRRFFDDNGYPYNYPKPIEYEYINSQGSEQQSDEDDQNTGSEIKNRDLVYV

[4] = biological target: Dual specificity tyrosine-phosphorylation-regulated kinase 1B (Homo sapiens, UniProt Q9Y463); experiment: Selectivity interaction (Kinase panel (Invitrogen)) EUB0000639a DYRK1B; conditions: at 200 nM
[5] = biological target: Serine/threonine-protein kinase PRP4 homolog (Homo sapiens) (UniProt Q13523); experiment: Selectivity interaction (ActivX KiNativ screen (kinase selectivity in THP-1 cell lysates)) EUB0000639a PRPF4; format: subcellular; conditions: lysate, at 0.01 µM
Sequence of Serine/threonine-protein kinase PRP4 homolog (Homo sapiens) (Q13523 whole entry): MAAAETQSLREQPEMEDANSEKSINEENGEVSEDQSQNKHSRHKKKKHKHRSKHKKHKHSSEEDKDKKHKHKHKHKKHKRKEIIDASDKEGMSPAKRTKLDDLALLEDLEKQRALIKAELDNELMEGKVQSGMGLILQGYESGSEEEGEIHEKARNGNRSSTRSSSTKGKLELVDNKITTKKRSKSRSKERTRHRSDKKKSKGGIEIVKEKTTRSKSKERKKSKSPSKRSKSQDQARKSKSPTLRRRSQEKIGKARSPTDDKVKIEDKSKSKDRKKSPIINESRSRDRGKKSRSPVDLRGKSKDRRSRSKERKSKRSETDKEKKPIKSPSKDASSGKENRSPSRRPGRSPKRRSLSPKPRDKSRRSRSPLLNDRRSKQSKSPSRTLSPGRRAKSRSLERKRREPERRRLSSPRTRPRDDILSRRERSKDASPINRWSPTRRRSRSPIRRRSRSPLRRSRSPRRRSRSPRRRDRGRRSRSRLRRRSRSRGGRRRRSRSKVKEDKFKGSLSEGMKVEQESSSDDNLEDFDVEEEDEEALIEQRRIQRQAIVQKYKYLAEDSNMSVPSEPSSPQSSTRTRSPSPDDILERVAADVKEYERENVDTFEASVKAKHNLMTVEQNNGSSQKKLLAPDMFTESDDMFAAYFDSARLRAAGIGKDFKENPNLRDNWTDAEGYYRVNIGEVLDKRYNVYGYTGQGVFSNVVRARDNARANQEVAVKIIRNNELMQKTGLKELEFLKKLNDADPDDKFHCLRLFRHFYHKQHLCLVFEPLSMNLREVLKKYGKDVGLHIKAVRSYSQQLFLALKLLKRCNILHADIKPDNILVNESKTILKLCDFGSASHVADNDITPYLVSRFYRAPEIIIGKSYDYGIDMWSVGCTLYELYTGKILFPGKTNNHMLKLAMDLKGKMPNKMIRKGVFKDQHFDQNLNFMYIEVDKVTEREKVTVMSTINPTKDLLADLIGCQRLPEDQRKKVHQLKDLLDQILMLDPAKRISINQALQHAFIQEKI

[6] = biological target: Homeodomain-interacting protein kinase 1 (Homo sapiens, UniProt Q86Z02); experiment: Selectivity interaction (Kinase panel (Invitrogen)) EUB0000639a HIPK1; conditions: at 200 nM
Sequence of Homeodomain-interacting protein kinase 1 (Q86Z02 whole entry, looked up): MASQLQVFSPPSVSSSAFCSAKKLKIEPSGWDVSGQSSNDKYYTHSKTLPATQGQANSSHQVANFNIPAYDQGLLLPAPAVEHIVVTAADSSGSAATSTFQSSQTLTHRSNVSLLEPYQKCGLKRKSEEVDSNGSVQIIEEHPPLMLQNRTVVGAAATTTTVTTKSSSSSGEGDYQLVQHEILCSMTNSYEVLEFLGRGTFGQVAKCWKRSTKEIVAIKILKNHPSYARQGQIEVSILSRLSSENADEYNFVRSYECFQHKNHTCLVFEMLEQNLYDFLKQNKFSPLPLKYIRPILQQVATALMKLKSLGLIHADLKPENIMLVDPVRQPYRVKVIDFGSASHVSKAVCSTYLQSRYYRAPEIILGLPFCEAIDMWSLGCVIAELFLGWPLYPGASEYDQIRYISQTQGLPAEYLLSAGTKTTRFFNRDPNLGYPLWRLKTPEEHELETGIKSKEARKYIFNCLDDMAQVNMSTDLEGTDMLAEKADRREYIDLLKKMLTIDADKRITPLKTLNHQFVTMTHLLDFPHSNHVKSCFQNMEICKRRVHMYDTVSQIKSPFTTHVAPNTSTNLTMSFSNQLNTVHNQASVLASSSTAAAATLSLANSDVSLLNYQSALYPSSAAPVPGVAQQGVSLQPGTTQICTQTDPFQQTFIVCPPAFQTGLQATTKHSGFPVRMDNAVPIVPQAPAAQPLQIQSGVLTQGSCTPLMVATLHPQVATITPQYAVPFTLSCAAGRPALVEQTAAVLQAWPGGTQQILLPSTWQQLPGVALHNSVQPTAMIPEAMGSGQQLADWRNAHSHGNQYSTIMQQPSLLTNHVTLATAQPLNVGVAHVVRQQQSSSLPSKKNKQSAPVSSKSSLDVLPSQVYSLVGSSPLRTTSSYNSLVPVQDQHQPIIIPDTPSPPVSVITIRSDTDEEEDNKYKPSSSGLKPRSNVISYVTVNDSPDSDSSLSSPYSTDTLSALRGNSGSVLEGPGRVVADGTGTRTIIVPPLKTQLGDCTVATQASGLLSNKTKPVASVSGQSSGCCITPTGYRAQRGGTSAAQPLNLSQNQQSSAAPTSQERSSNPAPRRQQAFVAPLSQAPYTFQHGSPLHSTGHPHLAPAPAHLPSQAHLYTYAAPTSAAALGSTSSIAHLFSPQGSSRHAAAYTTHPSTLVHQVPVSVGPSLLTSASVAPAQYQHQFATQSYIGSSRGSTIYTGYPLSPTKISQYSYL

[7] = biological target: Protein kinase C eta type (Homo sapiens) (UniProt P24723); experiment: Selectivity interaction (ProQinase) EUB0000171b PRKCH
Sequence of Protein kinase C eta type (Homo sapiens) (P24723 whole entry): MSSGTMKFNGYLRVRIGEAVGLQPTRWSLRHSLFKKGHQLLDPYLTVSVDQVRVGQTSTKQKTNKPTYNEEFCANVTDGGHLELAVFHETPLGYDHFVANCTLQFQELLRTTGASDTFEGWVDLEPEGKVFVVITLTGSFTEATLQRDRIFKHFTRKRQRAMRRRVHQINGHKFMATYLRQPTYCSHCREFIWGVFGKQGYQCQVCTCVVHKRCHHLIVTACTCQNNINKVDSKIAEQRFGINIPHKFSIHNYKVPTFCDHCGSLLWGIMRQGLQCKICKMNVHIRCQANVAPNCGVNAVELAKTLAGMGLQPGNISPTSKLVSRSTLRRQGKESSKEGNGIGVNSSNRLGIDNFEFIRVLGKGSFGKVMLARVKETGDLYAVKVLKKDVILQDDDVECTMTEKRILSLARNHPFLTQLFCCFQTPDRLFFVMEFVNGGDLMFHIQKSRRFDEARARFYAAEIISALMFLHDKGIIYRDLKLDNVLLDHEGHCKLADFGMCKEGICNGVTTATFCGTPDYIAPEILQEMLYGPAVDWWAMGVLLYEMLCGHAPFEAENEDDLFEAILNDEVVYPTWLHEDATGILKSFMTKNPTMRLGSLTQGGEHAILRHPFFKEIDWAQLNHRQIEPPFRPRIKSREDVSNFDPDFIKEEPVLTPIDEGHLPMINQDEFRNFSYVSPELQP

[8] = biological target: Sodium-dependent noradrenaline transporter (Homo sapiens, UniProt P23975); experiment: Selectivity interaction (Safety Panel 44tm (Eurofins)) EUB0000162b SLC6A2; conditions: at 10 µM
[9] = biological target: Serine/threonine-protein kinase SIK1 (Homo sapiens) (UniProt P57059); experiment: Selectivity interaction (KinomeScan (DiscoverX)) EUB0000655a SIK1; conditions: at 10 µM
[10] = biological target: Ribosomal protein S6 kinase alpha-2 (Homo sapiens) (UniProt Q15349); experiment: Selectivity interaction (KinomeScan (DiscoverX)) EUB0000045b RPS6KA2; conditions: at 10 µM
Sequence of Ribosomal protein S6 kinase alpha-2 (Homo sapiens) (Q15349 whole entry): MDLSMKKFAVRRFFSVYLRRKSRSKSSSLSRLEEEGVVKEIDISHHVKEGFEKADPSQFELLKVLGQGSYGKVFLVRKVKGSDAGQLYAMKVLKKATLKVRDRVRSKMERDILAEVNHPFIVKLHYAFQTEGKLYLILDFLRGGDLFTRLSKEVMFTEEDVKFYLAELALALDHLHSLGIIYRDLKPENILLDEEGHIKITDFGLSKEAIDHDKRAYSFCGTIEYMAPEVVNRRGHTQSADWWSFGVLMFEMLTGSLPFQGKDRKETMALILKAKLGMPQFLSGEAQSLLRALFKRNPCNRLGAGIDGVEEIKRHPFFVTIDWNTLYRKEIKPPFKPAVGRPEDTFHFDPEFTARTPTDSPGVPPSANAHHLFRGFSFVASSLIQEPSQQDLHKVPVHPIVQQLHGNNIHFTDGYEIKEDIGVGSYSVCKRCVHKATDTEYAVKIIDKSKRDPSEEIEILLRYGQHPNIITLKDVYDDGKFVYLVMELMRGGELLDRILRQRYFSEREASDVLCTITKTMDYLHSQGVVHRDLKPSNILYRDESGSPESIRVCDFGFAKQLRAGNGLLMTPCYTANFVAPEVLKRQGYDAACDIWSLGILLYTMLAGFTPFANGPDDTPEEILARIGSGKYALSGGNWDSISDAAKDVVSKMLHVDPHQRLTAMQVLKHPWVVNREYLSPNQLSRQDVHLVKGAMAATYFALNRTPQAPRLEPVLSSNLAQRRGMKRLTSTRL

[11] = biological target: 5'-AMP-activated protein kinase catalytic subunit alpha-1 (Homo sapiens, UniProt Q13131); experiment: Selectivity interaction (KinomeScan (DiscoverX)) EUB0001079a PRKAA1; conditions: at 1 µM
Sequence of 5'-AMP-activated protein kinase catalytic subunit alpha-1 (Q13131 whole entry, looked up): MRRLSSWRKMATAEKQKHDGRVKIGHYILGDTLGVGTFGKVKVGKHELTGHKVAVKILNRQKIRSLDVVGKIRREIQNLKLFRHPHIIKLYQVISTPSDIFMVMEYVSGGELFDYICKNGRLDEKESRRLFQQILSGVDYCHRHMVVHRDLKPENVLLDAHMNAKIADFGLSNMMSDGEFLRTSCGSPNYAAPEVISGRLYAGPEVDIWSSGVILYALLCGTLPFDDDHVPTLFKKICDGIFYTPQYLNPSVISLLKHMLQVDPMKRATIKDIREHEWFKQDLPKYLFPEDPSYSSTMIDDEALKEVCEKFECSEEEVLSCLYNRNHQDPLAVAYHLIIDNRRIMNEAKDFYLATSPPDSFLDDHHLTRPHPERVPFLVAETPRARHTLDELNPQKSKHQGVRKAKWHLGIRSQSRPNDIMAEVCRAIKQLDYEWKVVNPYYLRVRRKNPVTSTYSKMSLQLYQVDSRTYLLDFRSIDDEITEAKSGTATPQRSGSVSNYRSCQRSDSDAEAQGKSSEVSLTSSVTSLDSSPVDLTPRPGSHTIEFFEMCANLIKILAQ

[12] = biological target: T2, MAP/microtubule affinity-regulating kinase 4 (Homo sapiens) (UniProt Q96L34); experiment: Selectivity interaction (KinomeScan (DiscoverX)) EUB0000092b MARK4; conditions: at 10 µM
T2 sequence (whole entry): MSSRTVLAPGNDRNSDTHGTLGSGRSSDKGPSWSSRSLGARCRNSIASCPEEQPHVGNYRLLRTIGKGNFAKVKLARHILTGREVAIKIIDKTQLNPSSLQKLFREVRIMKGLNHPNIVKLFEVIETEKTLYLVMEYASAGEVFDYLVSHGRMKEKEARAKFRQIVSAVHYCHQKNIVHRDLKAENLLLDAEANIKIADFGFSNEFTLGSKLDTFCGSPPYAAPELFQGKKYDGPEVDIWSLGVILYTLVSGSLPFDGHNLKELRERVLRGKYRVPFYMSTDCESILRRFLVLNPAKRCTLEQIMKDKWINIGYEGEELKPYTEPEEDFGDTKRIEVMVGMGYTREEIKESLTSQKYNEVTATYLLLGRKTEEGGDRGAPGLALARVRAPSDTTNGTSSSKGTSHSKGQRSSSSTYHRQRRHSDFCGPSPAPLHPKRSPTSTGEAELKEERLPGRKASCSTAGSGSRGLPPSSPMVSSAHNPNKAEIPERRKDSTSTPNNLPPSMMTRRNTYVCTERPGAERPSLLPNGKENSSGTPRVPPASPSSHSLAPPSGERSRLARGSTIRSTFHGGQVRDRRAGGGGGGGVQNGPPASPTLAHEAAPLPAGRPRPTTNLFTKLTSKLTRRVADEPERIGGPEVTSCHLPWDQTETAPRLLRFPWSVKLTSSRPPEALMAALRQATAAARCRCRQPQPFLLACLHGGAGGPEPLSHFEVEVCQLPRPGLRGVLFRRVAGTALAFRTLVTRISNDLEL

[13] = biological target: Mitogen-activated protein kinase kinase kinase 10 (Homo sapiens) (UniProt Q02779); experiment: Selectivity interaction (KinomeScan (DiscoverX)) EUB0000618a MAP3K10; conditions: at 10 µM

Sequence of Serine/threonine-protein kinase pim-2 (Q9P1W9 whole entry, looked up): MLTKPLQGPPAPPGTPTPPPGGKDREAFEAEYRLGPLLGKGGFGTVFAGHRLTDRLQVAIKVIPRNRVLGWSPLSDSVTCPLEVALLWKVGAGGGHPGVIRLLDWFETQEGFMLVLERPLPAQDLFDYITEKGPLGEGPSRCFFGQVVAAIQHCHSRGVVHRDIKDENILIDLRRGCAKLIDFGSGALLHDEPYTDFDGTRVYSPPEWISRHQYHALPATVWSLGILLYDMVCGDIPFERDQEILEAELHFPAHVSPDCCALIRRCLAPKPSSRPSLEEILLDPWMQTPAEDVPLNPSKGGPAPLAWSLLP

`O=C(NOC[C@H](O)CO)c1ccc(F)c(F)c1Nc1ccc(I)cc1F` was tested, and the % of control [1] was 75%.

With `CNC(=O)Nc1ccc(-c2nc(N3CC4CCC(C3)O4)c3cnn(C4CCC5(CC4)OCCO5)c3n2)cc1` the % of control [2] was 100%.

With `CC[C@@H]1[C@H](F)C(=O)N[C@@H]1COc1nccc2cc(C(N)=O)c(OC)cc12` [ZIMLOVISERTIB] the % of inhibition [3] was 15.8%, the % of inhibition [4] was 16.5% and the % of inhibition [5] was 15.8%. It also gave a % of inhibition [6] of 7.68%.

In the case of `C=CC(=O)Nc1cccc(C(=O)Nc2ccc(Nc3cc(-c4[nH]c(SC)nc4C)ccn3)cc2)c1`, the % of control ([7]; at 1 µM) was 91% and the % of control ([7]; at 5 µM) was 78%.

Work on `CN(C)C(=O)Cn1cc(-c2ccc(-c3cncc4ccccc34)cc2)cn1` yielded a % of control [8] of 89%.

Work on `CN(C)CCOc1ccc(-c2nc(-c3ccncc3)c(-c3ccc4c(c3)CC/C4=N\O)[nH]2)cc1` yielded a % of control [9] of 100%.

Molecule `C=CC(=O)Nc1cc(-n2c(=O)ccc3cnc4ccc(-c5ccc(NS(C)(=O)=O)cc5)cc4c32)ccc1C` has a % of control [10] of 78%.

With `Nc1cnc(N2CCc3cc(S(=O)(=O)Nc4c(F)cc(Cl)cc4F)cc(N4CCCC4=O)c32)nc1` [TP-020n] the % of control [11] was 100%.

`CCC(=O)N1CCN(c2ccc(-n3c(=O)ccc4cnc5ccc(-c6cnc7ccccc7c6)cc5c43)cc2C(F)(F)F)CC1` was tested, and the % of control [12] was 100%.

`O[C@H]1CC[C@H](Nc2ncc3nc(Nc4c(F)cc(F)cc4F)n([C@H]4CCOC4)c3n2)CC1` was tested, and the % of control [13] was 100%.
